# Experimental data: patent US20210395698A1, “METHODS AND COMPOSITIONS FOR CULTIVATING PLURIPOTENT CELL SUSPENSIONS” (Life Technologies Corporation, priority 2020, published 2021)
# “Also recorded” adds a separate entry of the source.
# Tests used:
# [1] = test system: Gibco Human Episomal iPSCs; test: ROCK inhibitor pairing with PSC base medium formulation; type: cell-based; conditions: ROCKi used at time of passaging
# Protocol: Following 5-day growth with 50% medium exchange daily and constant agitation on an orbital shake platform, fold-change upon expansion was assessed.
# [2] = test system: Gibco Human Episomal iPSCs and WA09 ESCs; test: DOE of small molecules on PSC expansion in suspension culture (viable cell counts Day 5); type: cell-based; conditions: for fold-expansion of PSCs: added to base PSC medium+1× RevitaCell, 24 well, 120 RPM, viable cell counts Day 5
# Protocol: Design of Experiment (DOE) was conducted using Gibco Human Episomal induced pluripotent stem cells (iPSCs) and WA09 embryonic stem cells (ESCs) to determine the impact of the small molecules. These PSCs were seeded in base PSC medium+1× RevitaCell™ Supplement and grown in a 24 well non-tissue culture treated plate at 120 RPM on an orbital shaker platform and cell expansion was assessed via viable cell counts on Day 5. […] FIG. 1 depicts results from the assessment of various concentrations of an anti-clumping agent and individual small molecules CHIR99021, PD0325901, SP00125, BIRD796, and Go6983on the expansion of iPSCs and WA09 hESCs.
# [3] = test system: Gibco Human Episomal iPSCs; test: Spheroid growth and Oct4 pluripotency by seeding supplement (RevitaCell, Y-27632, Cellartis Supplement 3); type: cell-based
# Protocol: PSC fold-expansion and pluripotency maintenance was compared for spheroid cultures seeded with a ROCK inhibitor or with the Cellartis Supplement 3 of the commercially available Cellartis Def-CS 3D medium system and grown in the complete PSC medium provided herein. Gibco Human Episomal iPSCs were expanded in 24-well non tissue culture treated plates at 120 RPM on an orbital shaker platform in the complete PSC medium to determine whether the type of ROCKi or Supplement selected for use affects the overall spheroid growth. […] Overall spheroid growth and expansion was assessed after the cells had grown for 5 days in the 24 well plate (FIG. 15A). The pluripotency of the spheroids was also assessed after the cells had grown for 5 days in the 24 well plate (FIG. 15B). To assess pluripotency, spheroids were dissociated using StemPro Accutase and replated into 2D format for 24 hours. After 24 hours of growth, the cells were fixed, permeabilized and stained with DAPI and for Oct4 expression to determine the pluripotency of the dissociated cells. The number of cells expressing Oct4 was compared to the total number of cells expressing DAPI, enabling an estimation of the percentage of pluripotent stem cells obtained from the spheroids.
# [4] = test system: Gibco Human Episomal iPSCs; test: ROCKi comparison (Chroman I, Pinacidil, RevitaCell vs Y-27632) in PSC medium; type: cell-based; conditions: 1× RevitaCell, 60 μM Pinacidil; for spheroid morphology (size): 50 nM Chroman I, 10 μM Y-27632; for spheroid expansion: Chroman I vs 10 μM Y-27632, CHIR99021 containing PSC medium, 5 days
# Protocol: Gibco Human Episomal iPSCs were expanded in non-tissue culture treated 6 well plates on an orbital shaker set to 70 RPM. The cells were passaged from 2D cultures using StemPro Accutase and grown in PSC Medium. Cells were seeded on Day 0 at a concentration of 150,000 cells/mL in a 2 mL volume, with a ROCK inhibitor added to the culture. […] Spheroids were grown over 5 days, with 50% medium replacement performed daily.
# [5] = test system: iPSCs; test: DOE on balance of CHIR99021, Go6983 and BSA: spheroid formation, fold-expansion, Oct4 pluripotency; type: cell-based, human; conditions: for concentration giving maximal fold change (DOE prediction profiler): iPSCs in suspension, preference stated across WA09 ESCs and Gibco Human Episomal iPSCs
# Protocol: DOE was conducted to assess the balance of CHIR99021, Go6983 (a broad-spectrum PKC inhibitor), and BSA in achieving optimum fold-expansion, while also providing support of maintenance of pluripotency. […] Variation in spheroid size resulting from the various culture conditions was assess by phase contrast imaging. […] At day 5 of culture spheroids were dissociated using StemPro Accutase and replated into 2D format for 24 hours. After 24 hours of growth, the cells were fixed, permeabilized and stained with DAPI and for Oct4 expression to determine the pluripotency of the dissociated cells. The number of cells expressing Oct4 was compared to the total number of cells expressing DAPI, enabling an estimation of the percentage of pluripotent stem cells obtained from the spheroids.
# Various concentrations of Pinacidil, CHIR99021, Go6893, and BSA, with or without anti-clumping agent, was assessed for achieving fold-expansion of iPSCs in suspension culture. […] Overall, CHIR99021 facilitates spheroid formation and a balance of albumin and CHIR99021 maintains appropriate spheroid size.
# [6] = test system: Gibco Human Episomal iPSCs; test: Optimal range of CHIR99021 in 100 mL PBS bioreactors: fold-change and viability; type: cell-based
# Protocol: The optimal range of CHIR99021 for use in the PSC Medium formulation if included in the formulation for everyday feeds was assessed. Gibco Human Episomal iPSCs were expanded in 100 mL PBS bioreactors in duplicate and cell counts were performed at the end of each passage. […] The sugar source (glucose/galactose) and the concentration of CHIR99021 was varied. The feed schedule was also modified to include every day vs. every-other-day feed schedules. Fold-change upon expansion and viability were assessed for each condition. CHIR99021 concentrations as low as 0.6 μM supported optimal cell expansion on an every-day medium exchange feed schedule (FIG. 11A) and viability on an every-day and every-other-day medium exchange feed schedule (FIG. 11B). […] (FIGS. 11A-11B).
# [7] = test system: H9 (WA09) ESCs; test: ESC expansion in PSC basal medium with or without CHIR99021 vs mTeSR1; type: cell-based, human; conditions: 10 μM Y-27632 at passaging; Day 5
# Protocol: PSC expansion using the PSC media formulations provided herein was compared to expansion in commercially available media. H9 (WA09) ESCs were expanded in PSC basal medium in the absence of CHIR99021, PSC basal medium in the presence of CHIR99021, and in the mTeSR1 media formulation (Stem Cell Technologies). PSCs were passaged using StemPro™ Accutase™ cell dissociation reagent and grown in 6 well non-tissue culture treated plates seeded at 150,000 viable cells/mL in 2 mL of media and agitated at 70 RPM on an orbital shaker platform. […] Cell expansion was assessed via viable cell counts on Day 5. Cultures were fed with 50% medium replacement performed daily.
# [8] = test system: Gibco Human Episomal iPSCs and WA09 ESCs; test: Expansion and spheroid morphology with small molecules added continuously vs Day 1 only; type: cell-based
# Protocol: Cell morphology was assessed following exposure to formulations containing 3 μM CHIR99021 in continuous culture media vs exposure at day 1 only. iPSCs were grown in a 24 well non-tissue culture treated plate at 120 RPM on an orbital shaker platform and cell morphology was assessed on Day 5. In this experiment, the small molecules were added on Day 1 only or throughout the culture period. […] Cell expansion and morphology were assessed for PSC suspension cultures following incubation with the base PSC media formulation containing CHIR99021 alone or in combination with one or more of the other small molecules and/or anti-clumping agent. PSCs were grown in a 24 well non-tissue culture treated plate at 120 RPM on an orbital shaker platform and cell morphology was examined and cell expansion was assessed via viable cell counts on Day 5. In this experiment, the small molecules were either added on Day 1 only or throughout the culture period. In these figures, the x-axis indicates various formulations tested and the y-axis indicates the fold-change in viable cell counts from day 1 to day 5 of culture. Micrographs of the cell cultures at day 5 under certain conditions are also shown. […] It was surprising that the increase in fold-change could be accomplished through inclusion of CHIR99021 at the time of passage only (e.g., Day 1 only).
smiles,measurement,setting,value
O=C(NCc1ccccc1)c1csc(Nc2ccncn2)n1 [Thiazovivin],spheroid size relative to Pinacidil,[1],Larger spheroids
O=C1c2ccccc2-c2n[nH]c3cccc1c23 [SP00125],fold-expansion of PSCs,[2],detrimental to overall PSC expansion
"C[C@@H](N)[C@H]1CC[C@H](C(=O)Nc2ccncc2)CC1 [Y-27632, (R)-(+)-trans-4-(1-aminoethyl)-N-(4-pyridyl)cyclohexanecarboxamide]",spheroid size and morphology on Day 5,"[3]; added on day 1 in complete PSC medium, 24 well, 120 RPM",most efficient with larger spheroids
same,maintenance of pluripotency (Oct4 vs DAPI),"[3]; after 5 days, replated 24 hours",maintain high levels of pluripotent stem cells
same,spheroid morphology (size),[4],morphologically larger
same,spheroid expansion,[4],optimal performance
CC(N/C(=N\C#N)Nc1ccncc1)C(C)(C)C (stereo not drawn) [Pinacidil],spheroid morphology (size),[4],morphologically smaller
same,spheroid expansion,[4],inferior to 10 μM Y-27632
COc1ccc2c(c1)C[C@H](C(=O)Nc1ccc(-c3cn[nH]c3)cc1OCCN(C)C)CO2 [Chroman I],spheroid morphology (size),[4],morphologically larger
same,spheroid expansion,[4],perform similarly
COc1ccc2c(c1)c(C1=C(c3c[nH]c4ccccc34)C(=O)NC1=O)cn2CCCN(C)C [Go6983],concentration giving maximal fold change (DOE prediction profiler),[5],exclusion of Go6983 and anti-clump agent is preferred
"Cc1cnc(-c2cnc(NCCNc3ccc(C#N)cn3)nc2-c2ccc(Cl)cc2Cl)[nH]1 [CHIR99021, 6-[[2-[[4-(2,4-dichlorophenyl)-5-(5-methyl-1H-imidazol-2-yl)-2-pyrimidinyl]amino]ethyl]amino]-3-pyridinecarbonitrile]",CHIR99021 concentration supporting optimal cell expansion,"[6]; continuously in medium, every-day medium exchange",≥ 0.6 µM
same,CHIR99021 concentration supporting viability,[6]; every-day and every-other-day medium exchange,≥ 0.6 µM
same,CHIR99021 concentration supporting optimal fold-expansion,[6]; fed on every-other-day cadence,up to 1.5 μM
same,concentration giving maximal fold change (DOE prediction profiler),[5],intermediate concentration
same,spheroid formation,"[5]; seeded with 10 μM Y-27632, 3 μM CHIR99021 present or absent",aids in spheroid formation
same,fold-expansion compared to PSC basal medium without CHIR99021,[7],enhances fold-expansion
same,fold-expansion compared to mTeSR1,[7],significantly enhanced fold-expansion
same,spheroid morphology Day 5,[8]; 3 μM CHIR99021 included on a continual basis,aberrant differentiation was noted for some conditions
same,fold-expansion,[8]; CHIR99021 at various concentrations only at time of passaging,effective at increasing fold-expansion
same,spheroid morphology Day 5,[8]; CHIR99021 included only at time of passaging (Day 1),typical smooth edges and spheroid morphology; also recorded: maintain normal spheroidal morphology
same,cell nucleation,[2]; CHIR99021 alone in base PSC medium formulation,assisted in cell nucleation
same,fold-expansion of PSCs,[2],significant improvement in fold-expansion
O=C(NOC[C@H](O)CO)c1ccc(F)c(F)c1Nc1ccc(I)cc1F [PD0325901],fold-expansion of PSCs,[2],detrimental to overall PSC expansion
